Like-named read-outs stand apart in the source and are kept apart here. Residues, ends and D or L forms follow the SMILES beside them.
Tests used:
[1] = test system: white outbred rats; test: Subacute toxicity, 90 days; format: in vivo; settings: intramuscularly daily for 90 days, 1 μg/kg, 0.3 mg/kg, 3 mg/kg
Protocol: Experimental animals were exposed daily to a single administration of the drug intramuscularly for 90 days in doses 1 μg/kg, 0.3 mg/kg, 3 mg/kg in 0.5 ml of sodium chloride solution. Animals of the control group were administered with the same amount of sodium chloride.
Within the whole period of study the animals were under daily observation. Behaviour of the animals, their rations and water consumption, the state of hair integument and mucous membranes were registered. The animals were weighed weekly. Prior to and on the 30th, 60th, and 90th days of the drug administration the morphological composition and properties of the peripheral blood were examined. Upon the experiment completion biochemical and coagulologic indices of blood were investigated.

[2] = test system: Drosophila melanogaster of HEM strain; test: Reproductive function: share of live and fertile cultures, HEM strain; format: in vivo; design: key to Share of cultures, Live: % of initial test tubes containing live females; key to Share of cultures, Fertile: % of live cultures in which posterity was given; settings: for Share of cultures, Fertile / Share of cultures, Live: 0.00001% of medium weight
Protocol: Influence of L-Ala-L-Glu-L-Asp-Gly tetrapeptide (SEQ ID NO: 1) upon Drosophila melanogaster was tested at the stage of larvae of the 2nd-3rd age, by means of adding the preparation to culture medium in dose 0.00001% of the medium weight, which approximately made 0.015 mg/100 ml. The flies, hatched on the 1st day, were placed into test tubes, 5 couples in each, and transferred to fresh medium every 3 to 6 days.
There have been considered the following factors:
The share of the test tubes (of their initial amount), which contained live females (in Table 3—the share of live cultures).
The share of the test tubes (of the number of live cultures), in which posterity was given (in Table 3—the share of fertile cultures).
In each experimental variant 75 parental couples were analysed. The distinctions between fertility indices were defined by means of Fischer exact criterion for 2×2-adjustment tables (24).

[3] = test system: Drosophila melanogaster of “wild” Canton-S strain; settings: for ALS ± statistic errors / Alterations in ALS: Canton-S; for Alterations in ALS: versus control
Protocol: In this research Drosophila melanogaster of “wild” Canton-S strain were employed.
L-Ala-L-Glu-L-Asp-Gly tetrapeptide (SEQ ID NO: 1) in the solution form was introduced into the culture medium provided for the growth of insects, which was cooled down to 50-60° C., with subsequent careful stirring and depositing it into test tubes.
To make the conditions of both the control and experimental population development identical, an amount of sodium chloride equal to that used for L-Ala-L-Glu-L-Asp-Gly tetrapeptide (SEQ ID NO: 1) solution was introduced into the culture medium for the control. The concentration of all the substances employed was calculated by the ratio to the mass of the culture medium provided for reproduction.
4-day old female flies underwent a randomly selected mating with males for 72 hours, one couple per each test tube, after which parental couples were removed from the test tubes. To form every new generation the posterity of 50 to 80 couples was used.
Life span (LS) was investigated on laboratory populations, each of them consisting of 90 individuals of each sex. Immediately after hatching the flies were randomly placed in test tubes, 10 individuals in each. Substitution of the culture medium was carried out 3 times a week.
Average values (ALS) and standard errors calculated by the traditional method were applied as life span distribution parameters. Average values were compared to each other with the application of Student t-criterion.
For experimental study 6 concentrations of L-Ala-L-Glu-L-Asp-Gly tetrapeptide (SEQ ID NO: 1) were selected: 0.01×, 0.1×, 1×, 5×, 7.5×, and 12.5×10^−6% of the culture medium weight.

[4] = females, concentration 0.01 ×10^−6%
[5] = females, concentration 0.1 ×10^−6%
[6] = females, concentration 1.0 ×10^−6%
[7] = females, concentration 5.0 ×10^−6%
[8] = females, concentration 7.5 ×10^−6%
[9] = females, concentration 12.5 ×10^−6%
[10] = males, concentration 0.01 ×10^−6%
[11] = males, concentration 0.1 ×10^−6%
[12] = males, concentration 1.0 ×10^−6%
[13] = males, concentration 5.0 ×10^−6%
[14] = males, concentration 7.5 ×10^−6%
[15] = males, concentration 12.5 ×10^−6%

Q: For `C[C@H](N)C(=O)N[C@@H](CCC(=O)O)C(=O)N[C@@H](CC(=O)O)C(=O)NCC(=O)O` [L-Ala-L-Glu-L-Asp-Gly tetrapeptide, L-alanyl-L-glutamyl-L-aspartyl-glycine] (H-AEDG-OH), which “Side effects, subacute toxicity” value [1] is on record?
A: absence of side effects

Q: And the “Coefficient A of lineal regression, fertile culture share on age (y = B + Ax)” value ([2]; HEM strain)?
A: −2.5 ± 0.37

Q: And the “Coefficient A of lineal regression, live culture shares on age (y = B + Ax)” value ([2]; HEM strain)?
A: −1.6 ± 0.17

Q: What about the “Coefficient B of lineal regression, fertile culture share on age (y = B + Ax)” value ([2]; HEM strain) of the same molecule?
A: 115 ± 11.4

Q: And the “Coefficient B of lineal regression, live culture shares on age (y = B + Ax)” value ([2]; HEM strain)?
A: 137 ± 10.6

Q: And the “Maximal life span attained” value ([2]; HEM strain)?
A: 100 days

Q: And the ““a”-coefficient of fertile-share regression, control higher than experimental variant” value ([2]; HEM strain)?
A: 1.8 times

Q: And the Average life span ([2]; HEM strain, Table 6)?
A: 54 days

Q: And the “Share of live cultures decreases faster than in controls” value ([2]; HEM strain, regression analysis)?
A: 1.5 times

Q: What about the “Extension of the reproduction period” value ([2]; HEM strain, versus control) of the same molecule?
A: 1.5 fold

Q: And the “Duration of the reproductive period” value ([2]; HEM strain, 30 days for cultures not exposed)?
A: 47 days

Q: And the “Share of cultures, Fertile” value ([2]; day 0, HEM strain)?
A: 100 + 0.8

Q: What about the “Share of cultures, Fertile” value ([2]; day 6, HEM strain) of the same molecule?
A: 100 + 0.8

Q: And the “Share of cultures, Fertile” value ([2]; day 10, HEM strain)?
A: 93 ± 6.9

Q: And the “Share of cultures, Fertile” value ([2]; day 13, HEM strain)?
A: 93 ± 6.9

Q: And the “Share of cultures, Fertile” value ([2]; day 19, HEM strain)?
A: 86 ± 9.4

Q: What about the “Share of cultures, Fertile” value ([2]; day 23, HEM strain) of the same molecule?
A: 43 ± 13.2

Q: What about the “Share of cultures, Fertile” value ([2]; day 27, HEM strain) of the same molecule?
A: 31 ± 12.9

Q: And the “Share of cultures, Live” value ([2]; day 27, HEM strain)?
A: 93 ± 6.9

Q: And the “Share of cultures, Fertile” value ([2]; day 32, HEM strain)?
A: 36 ± 14.5

Q: What about the “Share of cultures, Live” value ([2]; day 32, HEM strain) of the same molecule?
A: 85 ± 10.0

Q: What about the “Share of cultures, Fertile” value ([2]; day 38, HEM strain) of the same molecule?
A: 9 ± 8.7

Q: And the “Share of cultures, Live” value ([2]; day 38, HEM strain)?
A: 85 ± 10.0

Q: What about the “Share of cultures, Fertile” value ([2]; day 44, HEM strain) of the same molecule?
A: 9 ± 8.7

Q: And the “Share of cultures, Live” value ([2]; day 44, HEM strain)?
A: 85 ± 10.0

Q: What about the “Share of cultures, Fertile” value ([2]; day 50, HEM strain) of the same molecule?
A: 9 ± 8.7

Q: What about the “Share of cultures, Live” value ([2]; day 50, HEM strain) of the same molecule?
A: 36 ± 12.8

Q: And the “Share of cultures, Fertile” value ([2]; day 54, HEM strain)?
A: 0 + 0.9

Q: What about the “Share of cultures, Live” value ([2]; day 54, HEM strain) of the same molecule?
A: 36 ± 12.8

Q: What about the “Share of cultures, Fertile” value ([2]; day 60, HEM strain) of the same molecule?
A: 0 + 0.9

Q: What about the “Share of cultures, Live” value ([2]; day 60, HEM strain) of the same molecule?
A: 29 ± 12.1

Q: What about the “Share of cultures, Fertile” value ([2]; day 66, HEM strain) of the same molecule?
A: 0 + 0.9

Q: What about the “Share of cultures, Live” value ([2]; day 66, HEM strain) of the same molecule?
A: 29 ± 12.1

Q: What about the “Share of cultures, Fertile” value ([2]; day 69, HEM strain) of the same molecule?
A: 0 + 0.9

Q: And the “Share of cultures, Live” value ([2]; day 69, HEM strain)?
A: 21 ± 10.9

Q: What about the “Share of cultures, Fertile” value ([2]; day 73, HEM strain) of the same molecule?
A: 0 + 0.9

Q: What about the “Share of cultures, Live” value ([2]; day 73, HEM strain) of the same molecule?
A: 7 ± 6.9

Q: And the “Share of cultures, Fertile” value ([2]; day 76, HEM strain)?
A: 0 + 0.9

Q: And the “Share of cultures, Live” value ([2]; day 76, HEM strain)?
A: 7 ± 6.9

Q: And the “Share of cultures, Fertile” value ([2]; day 84, HEM strain)?
A: 0 + 0.9

Q: And the “Share of cultures, Live” value ([2]; day 84, HEM strain)?
A: 7 ± 6.9

Q: What about the “Share of cultures, Fertile” value ([2]; day 87, HEM strain) of the same molecule?
A: 0 + 0.9

Q: What about the “Share of cultures, Live” value ([2]; day 87, HEM strain) of the same molecule?
A: 7 ± 6.9

Q: And the “Share of cultures, Fertile” value ([2]; day 100, HEM strain)?
A: 0 + 0.9

Q: And the “Share of cultures, Live” value ([2]; day 100, HEM strain)?
A: 0 + 0.8

Q: And the “ALS ± statistic errors” value [3, 4]?
A: 35.41 ± 1.07

Q: What about the “Alterations in ALS” value [3, 4] of the same molecule?
A: 13.4%

Q: And the “Alterations in ALS” value ([3]; females, concentration 0.01 ×10^−6%, listed as L-Ala-L-Glu-L-Asp-Gly)?
A: +13.4%

Q: What about the “ALS ± statistic errors” value [3, 5] of the same molecule?
A: 35.41 ± 1.07

Q: What about the “Alterations in ALS” value [3, 5] of the same molecule?
A: 11.8%

Q: And the “Alterations in ALS” value ([3]; females, concentration 0.1 ×10^−6%, listed as L-Ala-L-Glu-L-Asp-Gly)?
A: +11.8%

Q: What about the “ALS ± statistic errors” value [3, 6] of the same molecule?
A: 35.76 ± 1.35

Q: And the “Alterations in ALS” value [3, 6]?
A: −1.1%

Q: What about the “ALS ± statistic errors” value [3, 7] of the same molecule?
A: 38.04 ± 1.56

Q: And the “Alterations in ALS” value [3, 7]?
A: +3.2%

Q: And the “ALS ± statistic errors” value [3, 8]?
A: 31.16 ± 1.21

Q: What about the “Alterations in ALS” value [3, 8] of the same molecule?
A: −7.6%

Q: And the “ALS ± statistic errors” value [3, 9]?
A: 37.06 ± 1.12

Q: What about the “Alterations in ALS” value [3, 9] of the same molecule?
A: +5.6%

Q: And the “Duration of stage development (lack of genotoxic effect)” value ([3]; in vivo)?
A: did not alter the duration of their stage development

Q: And the “ALS ± statistic errors” value [3, 10]?
A: 36.47 ± 1.09

Q: And the “Alterations in ALS” value [3, 10]?
A: +12.0%

Q: And the “ALS ± statistic errors” value [3, 11]?
A: 34.85 ± 1.18

Q: And the “Alterations in ALS” value [3, 11]?
A: +10.8%

Q: And the “ALS ± statistic errors” value [3, 12]?
A: 36.77 ± 1.44

Q: What about the “Alterations in ALS” value [3, 12] of the same molecule?
A: +13.3%

Q: What about the “ALS ± statistic errors” value [3, 13] of the same molecule?
A: 37.74 ± 1.16

Q: And the “Alterations in ALS” value [3, 13]?
A: +11.3%

Q: And the “ALS ± statistic errors” value [3, 14]?
A: 39.98 ± 0.99

Q: What about the “Alterations in ALS” value [3, 14] of the same molecule?
A: −0.03%

Q: And the “ALS ± statistic errors” value [3, 15]?
A: 33.96 ± 1.01

Q: What about the “Alterations in ALS” value [3, 15] of the same molecule?
A: −9.0%

From patent publication US6727227B1, “Tetrapetide revealing geroprotective effect, pharmacological substance on its basis, and the method of its application” (Obschestvo S Ogranichennoi Otvetstven-Nostiju “Klinika …, priority 2002, dated 2004)
